# Test results reported in patent publication US20120189758A1, “Flavour Enhancement” (priority 2009, published 2012).
# Key:
# [1] = GABA concentration series in reference savoury solution, tasted for umami enhancement (Example 4); conditions: 5000 ppm table salt, 15 ppm MSG, 75 ppm IMP/GMP
# Experimental: A reference solution containing 5000 ppm table salt, 15 ppm MSG and 75 ppm IMP/GMP was prepared. To different parts of this solution 5, 10, 15, 20, and 25 ppm GABA was added. The solutions were tasted by a small group of experienced tasters (3 male, 1 female). […] 15 ppm of GABA was the flavoured sample in comparison to the target.
# [2] = Taste comparison of model savoury base, GABA solution and base plus GABA (Example 2); conditions: 4 experienced tasters; base: 5000 ppm table salt, 150 ppm MSG, 75 ppm IMP/GMP; GABA 10 ppm
# Experimental: A model savoury solution containing 5000 ppm table salt, 150 ppm MSG and 75 ppm IMP/GMP was used as a base.
# Another solution was prepared containing 10 ppm GABA.
# In a third solution, 10 ppm GABA was added to the base solution.
# The solutions were compared by a small group of experienced tasters (3 male, 1 female).
# The base solution was described as salty and umami. The GABA solution was tasteless. All members of the group preferred the third solution over the first one and judged to be noticeably different from the base.
smiles,measurement,setting,value
"NCCCC(=O)O [GABA, γ-amino butyric acid]",GABA concentration of the flavoured (favoured) sample in comparison to the target,[1],15 ppm
same,taste description,[2],tasteless
